Assay results: patent US20250295113A1, “COMPOSITION AND METHOD FOR CONTROLLING WEEDS” (priority 2022, published 2025)

Experiments:
[1] = system: St Augustinegrass variety 'Floratam'; assay: Example 1: Floratam St Augustinegrass phytotoxicity trial; settings: quinclorac alone, both formulations, 573 g ai/ha, two applications on 21-day interval
blanket crabgrass = assay: Example 4: blanket crabgrass control trial in Floratam St Augustinegrass; format: in vivo, blanket crabgrass (Digitaria serotina); settings: quinclorac 573 g ai/ha; two applications, 21-day interval
Description: (§1) Two applications were made on a 21-day interval.

Torpedograss = assay: Example 3: Torpedograss control trial; format: in vivo, Torpedograss (Panicum repens); settings: quinclorac 573 g ai/ha with and without metcamifen 75 g ai/ha; two applications, 21-day interval
Description: as §1

Question: `O=C(O)c1c(Cl)ccc2cc(Cl)cnc12` [Quinclorac, 3,7-dichloro-8-quinolinecarboxylic acid] was tested. Which “injury to Floratam St Augustinegrass (in words)” value [1] did it give?
Answer: significant injury

Question: And the “blanket crabgrass control (in words)” value (blanket crabgrass)?
Answer: excellent, significant control

Question: And the “Torpedograss control / efficacy (in words)” value (Torpedograss)?
Answer: provided control of Torpedograss
